Experiments:
Type in all cases: in vivo
Rhipicephalus microplus [1] = assay: Rhipicephalus (Boophilus) microplus injection test (BOOPMI Inj); settings: 168 h, injection into adult engorged female ticks, egg deposition after 7 days, read-out: activity (efficacy: 100% means all eggs are infertile); for pest or weed control at 0.004 mg: application rate 4 μg/tick; for pest or weed control at 0.02 mg: application rate 20 μg/tick
Method: Rhipicephalus (Boophilus) Microplus—Injection Test (BOOPMI Inj)
Solvent: dimethyl sulfoxide
To produce a suitable preparation of active compound, 10 mg of active compound are dissolved in 0.5 mL solvent, and the concentrate is diluted with solvent to the desired concentration.
Five adult engorged female ticks (Rhipicephalus microplus) are injected with 1 μL compound solution into the abdomen. The ticks are transferred into replica plates and incubated in a climate chamber.
After 7 days egg deposition of fertile eggs is monitored. Eggs where fertility is not visible are stored in a climate chamber till hatching after about 42 days. An efficacy of 100% means all eggs are infertile; 0% means all eggs are fertile.

Rhipicephalus microplus [2] = assay: Rhipicephalus (Boophilus) microplus in-vitro contact test, larval cattle tick, strain Parkhurst (BOOPMI Cont); settings: application rate 5 μg/cm^2 (=500 g/ha), tick larvae, after 48 hours, read-out: activity (efficacy: 100% means all larvae are dead or moribund)
Method: Rhipicephalus (Boophilus) Microplus—In-Vitro Contact Tests Larval Cattle Tick (Strain Parkhurst, Resistant Against Synthetic Pyrethroids) (BOOPMI Cont)
9 mg compound is solved in 1 mL acetone and diluted with acetone to the desired concentration. 250 μL of the test solution is filled in 25 mL glass test tubes and homogeneously distributed on the inner walls by rotation and tilting on a shaking device (2 h at 30 rpm). With a compound concentration of 900 ppm, an inner surface of 44.7 cm^2 and a homogeneous distribution, a dose of 5 μg/cm^2 is achieved.
After the solvent has evaporated, each test tube is filled with 20-50 cattle tick larvae (Rhipicephalus microplus), closed with a perforated lid and incubated in a horizontal position at 85% relative humidity and 27° C. in an incubator. After 48 hours efficacy is determined. The larvae are patted on the ground of the tubes and negative geotactic behavior is recorded.
An efficacy of 100% means all larvae are dead or moribund; 0% means no larvae are dead or moribund.

Ctenocephalides felis = Ctenocephalides felis oral test (CTECFE Oral); settings: 48 h, read-out: activity (mortality)
Method: Ctenocephalides felis—Oral Test (CTECFE Oral) Solvent: dimethyl sulfoxide
To produce a suitable preparation of active compound, 10 mg of active compound are dissolved in 0.5 mL solvent, and the concentrate is diluted with cattle blood to the desired concentration.
Approximately 20 adult unfed cat fleas (Ctenocephalides felis) are placed in flea chambers. The blood chamber, sealed with parafilm on the bottom, are filled with cattle blood supplied with compound solution and placed on the gauze covered top of the flea chamber, so that the fleas are able to suck the blood. The blood chamber is heated to 37° C. whereas the flea chamber is kept at room temperature.
After 2 days mortality in % is determined. 100% means all the fleas have been killed; 0% means none of the fleas have been killed.

Rhipicephalus sanguineus = Rhipicephalus sanguineus in-vitro contact test, adult brown dog ticks (RHIPSA Cont); settings: 48 h, after 48 hours, read-out: activity (efficacy: 100% means all ticks are dead or moribund); for pest or weed control at 5 µg/cm2, 500 g/ha: application rate 5 μg/cm^2 (=500 g/ha); for pest or weed control at 1 µg/cm2, 100 g/ha: application rate 1 μg/cm^2 (=100 g/ha)
Method: Rhipicephalus sanguineus-In-Vitro Contact Tests with Adult Brown Dog Ticks ([…] Cont) 9 mg compound is solved in 1 mL acetone and diluted with acetone to the desired concentration. 250 μL of the test solution is filled in 25 mL glass test tubes and homogeneously distributed on the inner walls by rotation and tilting on a shaking device (2 h at 30 rpm). […] After 48 hours efficacy is determined. The ticks are patted on the ground of the tubes and are incubated on a heating plate at 45-50° C. for at most 5 minutes. Immotile or uncoordinated moving ticks, which are not able to escape the heat by climbing upwards, are marked as dead or moribund.

Diabrotica balteata = Diabrotica balteata spray test; settings: 168 h, wheat seeds, larvae, after 7 days, read-out: activity (efficacy: 100% means all seedlings have grown up like in the untreated, uninfected control); for pest or weed control at 32 µg/disc, 100 g/ha: application rate 100 g/ha (=32 μg/well)
Method: Diabrotica balteata—Spray Test Solvent: 78.0 parts by weight of acetone • • 1.5 parts by weight of dimethylformamide Emulsifier: alkylarylpolyglycol ether
To produce a suitable preparation of active compound, 1 part by weight of active compound is mixed with the stated amount of solvent, and the concentrate is diluted with water, containing an emulsifier concentration of 1000 ppm, to the desired concentration. Further test concentrations are prepared by dilution with emulsifier containing water.
Soaked wheat seeds (Triticum aestivum) are placed in a multiple well plate filled with agar and some water and are incubated for 1 day to germinate (5 seeds per well). The germinated wheat seeds are sprayed with a test solution containing the desired concentration of the active ingredient. Afterwards each unit is infected with 10-20 larvae of the banded cucumber beetle (Diabrotica balteata).
After 7 days efficacy in % is determined. 100% means all the seedlings have grown up like in the untreated, uninfected control; 0% means none of the seedlings have grown.

[3] = system: Aedes aegypti strain MONHEIM; assay: Aedes aegypti test (AEDSAE surface treatment & contact assay); settings: exposure 30 minutes, 24 hours after contact, read-out: efficacy (mortality); for mortality at 4 mg/m2: surface concentration 4 mg/m^2, glazed tile; for mortality at 20 mg/m2: surface concentration 20 mg/m^2, glazed tile
Method: Aedes aegypti Test (AEDSAE Surface Treatment & Contact Assay) Solvent: Aceton+2000 ppm rapeseed oil methyl ester (RME)
In order to produce a sufficient, active ingredient containing solution it is necessary to solve the test compound in the solvent-mix (acetone at 2 mg/ml/RME 2000 ppm). This solution is pipetted onto a glazed tile and after evaporation of the acetone, adult mosquitoes of the species Aedes aegypti strain MONHEIM are placed onto the dried surface. The exposure time is 30 minutes. Mortality in percent (%) is determined 24 hours after contact of the insects to the treated surface. 100% mortality means that all tested insects are dead, whereas 0% means that no insect died.

Spodoptera frugiperda = Spodoptera frugiperda spray test; settings: in Zea mays, 168 h, read-out: activity (mortality)
Method: Spodoptera Fruaiperda—Spray Test
Solvent: 78.0 parts by weight acetone • 1.5 parts by weight dimethylformamide Emulsifier: alkylarylpolyglycol ether
To produce a suitable preparation of active compound, 1 part by weight of active compound is mixed with the stated amount of solvents and is diluted with water, containing an emulsifier concentration of 1000 ppm, to the desired concentration. Further test concentrations are prepared by dilution with emulsifier containing water.
Maize (Zea mays) leaf sections are sprayed with a preparation of the active ingredient of the desired concentration. Once dry, the leaf sections are infested with fall armyworm larvae (Spodoptera frugiperda).
After 7 days mortality in % is determined. 100% means all caterpillars have been killed and 0% means none of the caterpillars have been killed.

Myzus persicae = Myzus persicae oral test; settings: 120 h, read-out: activity (mortality)
Method: Myzus persicae—Oral Test Solvent: 100 parts by weight acetone
To produce a suitable preparation of active compound, 1 part by weight of active compound is mixed with the stated amount of solvent, and the concentrate is diluted with water to the desired concentration.
50 μL compound solution is filled in microtiter plates and 150 μL IPL41 insect medium (33%+15% sugar) is added to obtain a total volume of 200 μL per well. Afterwards the plates are sealed with parafilm through which a mixed population of the green peach aphid (Myzus persicae) can suck on the compound preparation.
After 5 days mortality in % is determined. 100% means all aphids have been killed and 0% means none of the aphids have been killed.

Structure (SMILES) | pest or weed control at 0.004 mg (Rhipicephalus microplus [1]) | pest or weed control at 0.02 mg (Rhipicephalus microplus [1]) | pest or weed control at 5 µg/cm2 (Rhipicephalus microplus [2]) | mortality at 100 ppm (Ctenocephalides felis) | pest or weed control at 5 µg/cm2, 500 g/ha (Rhipicephalus sanguineus) | pest or weed control at 32 µg/disc, 100 g/ha (Diabrotica balteata) | mortality at 4 mg/m2 [3] | mortality at 100 g/ha (Spodoptera frugiperda) | pest or weed control at 1 µg/cm2, 100 g/ha (Rhipicephalus sanguineus) | pest or weed control at 160 µg/disc, 500 g/ha (Diabrotica balteata; application rate 500 g/ha (=160 μg/well)) | mortality at 500 g/ha (Spodoptera frugiperda) | mortality at 4 ppm (Myzus persicae) | mortality at 20 mg/m2 [3]
CC[C@H](NC(=O)c1cc(Cl)cc(C(F)(F)F)c1)c1nc(C)nn1-c1ncc(OC(F)F)cn1 [II-60] | 100% | 100% | 100% | 100% | – | – | – | – | – | – | – | – | –
Cc1nc([C@H](C)NC(=O)c2cncc(Br)c2)n(-c2ccc(C#N)cn2)n1 [II-49] | 100% | 100% | 100% | 100% | 100% | 100% | 80 to 100% | – | – | – | – | – | –
C[C@H](NC(=O)c1cc(Br)cc(OC(F)(F)F)c1)c1nc(C2CC2)nn1-c1ccc(C#N)cn1 [I-41] | 100% | – | 100% | 100% | – | – | – | 100% | – | – | – | – | –
CC(C)c1nc([C@H](C)NC(=O)c2cc(Br)cc(C(F)(F)F)c2)n(-c2ccc(C#N)cn2)n1 [I-21] | 100% | 100% | 100% | 100% | 100% | 80% | – | 100% | 100% | – | – | – | –
C[C@H](NC(=O)c1cc(Cl)cc(Cl)c1)c1nc(C2CC2)nn1-c1ccc(C#N)cn1 [I-5] | 100% | 100% | 100% | 100% | – | 100% | – | 100% | – | 100% | 100% | – | –
C[C@H](NC(=O)c1cc(Br)cc(Br)c1)c1nc(C2CC2)nn1-c1ccc(C#N)cn1 [I-36] | 100% | – | 100% | 90% | – | 100% | – | 100% | 100% | – | – | – | –
CC(C)c1nc([C@H](C)NC(=O)c2cc(Br)cc(C#N)c2)n(-c2ccc(C#N)cn2)n1 [I-25] | 100% | 100% | 100% | 100% | 80% | 100% | – | 100% | 100% | – | – | – | –
CC(NC(=O)c1cc(C(F)(F)F)cc(C(F)(F)F)c1)c1nc(Br)nn1-c1ccc(C#N)cn1 (racemic) [I-48, 3,5-di(trifluoromethyl)-N-{1-[3-bromo-1-(3-cyano-pyridin-6-yl)-1H-1,2,4-triazol-5-yl]ethyl}-benzamide] | 100% | – | 100% | 100% | – | 100% | – | 100% | – | – | – | 90% | –
CC(C)c1nc([C@H](C)NC(=O)c2cncc(Br)c2)n(-c2ccc(C#N)cn2)n1 [I-27] | 100% | 100% | 90% | 100% | 100% | – | – | – | 100% | – | – | – | 80 to 100%
C[C@H](NC(=O)c1cc(Br)c(F)c(Br)c1)c1ncnn1-c1ccc(C#N)cn1 [II-82] | 100% | – | 100% | 100% | 80% | 80% | 80 to 100% | 100% | 80% | – | – | – | 80 to 100%
CC[C@H](NC(=O)c1cc(Cl)cc(C(F)(F)F)c1)c1ncnn1-c1ncc(OC(F)F)cn1 [II-64] | 100% | 100% | 100% | 100% | 80% | 100% | – | 100% | – | – | – | – | 80 to 100%
